Series [1] has as its system CQ-sensitive D6 strain of P. falciparum. In words: In vitro antimalarial activity, SYBR Green MSF assay, D6. The format is cell-based. Particulars: Plasmodium falciparum, D6. The source says:
This example describes the screening of disclosed antimalarial acridones against the CQ-sensitive D6 strain and the MDR Dd2 strain of P. falciparum for in vitro antimalarial activity.

Series [2] can be described thus: Heme-binding affinity (spectrophotometric titration). The settings on record: Table 4. The text has this:
With continued reference to FIG. 1, panel B illustrates the spectrophotometric titration curve of the heme:3,6-bis-ε-(N,N-diethylamino)-amyloxy xanthone (C5) complex. The apparent binding constant was derived from the best fit (solid line) of a 1:1 (heme dimer:C5) association model. […] Panels A and B show the fluorescence localization of C5 and LysoTracker Red, respectively.

The subject of series [3] is MDR P. falciparum Dd2. In words: Fixed-ratio combination (isobologram) with quinoline antimalarials, Dd2. Type of series: cell-based. On the procedure:
(§1) In one embodiment, synergism is assessed herein using fixed-ratio combinations that provide information over a wide range of drug concentrations. […] If these stock solutions were termed Drug A and Drug B, then six final stock solutions were prepared from this initial stock: Drug A alone, Drug B alone, and volume:volume mixtures of Drug A and B in the following ratios: 4:1, 3:2, 2:3, and 1:4. Two-fold dilutions of each of the six final stock solutions were done robotically across a 96-well plate in quadruplicate. Subsequent steps were typical of standard drug-susceptibility methods. […] The data pointed from all six curves were then analyzed using Calcusyn software (commercially available from BioSoft, Cambridge, UK) for determination of synergy. Output from this analysis included FIC values used to plot isobolograms as well as a rigorously determined synergy index, termed the combination index (CI) (Calcusyn). FIC50 isobolograms, CI's and tabulation of IC90 component drug concentrations were reported.
The combinations of the acridones T3.5 and T2 with quinine were assessed for synergism.
FIG. 6 is an isobologram charting the efficacy of quinine in combination with T3.5 in vitro against CQ-sensitive (D6) and MDR (Dd2) P. falciparum.

In series [4] the test system is CQ-sensitive P. falciparum D6. In words: Fixed-ratio combination (isobologram) with quinine, D6. The settings on record: isobolar analysis. The format is cell-based. The procedure: as §1, with “concentrations. In this method, the two drugs are mixed in an appropriate ratio, serial dilutions of the combined solution are used for testing, and results compared to each drug alone. Specifically, to determine synergy, the acridone is tested in combination with a second drug using a modification of the fixed-ratio method described by Fivelman et al. (See, Fivelman et al., Antimicrob. Agents Chemother. 48, 4097-4102 (2004) and Winter et al., Antimicrob. Agents Chemother. 41, 1449-1454 (1997), both references incorporated herein, in their entirety, by reference).” for “concentrations.”, “quadruplicate.” for “quadruplicate. Subsequent steps were typical of standard drug-susceptibility methods.”, “FIC50 isobolograms, CI's and tabulation of IC90 component drug concentrations were reported.” left out

The target in series [5] is T1, recombinant human dopamine transporter (hDAT) (Homo sapiens, UniProt Q01959).
T1 construct: expressed in transfected cells
In words: [125I]RTI-55 binding, HEK-hDAT.

The target of series [6] is T2, recombinant human serotonin transporter (hSERT) (Homo sapiens, UniProt P31645).
T2 construct: expressed in transfected cells
Description: [125I]RTI-55 binding, HEK-hSERT.

Series [7] addresses T3, recombinant human norepinephrine transporter (hNET) (Homo sapiens, UniProt P23975).
T3 construct: expressed in transfected cells
Description: [125I]RTI-55 binding, HEK-hNET.

Series [8] can be described thus: Metabolic stability and fate in hepatic S9 fraction with NADPH. Type of series: in vitro ADME, murine. The settings on record: 50 μM, NADPH 1 mM, 10, 30 and 60 min. On the procedure: This example investigates the metabolic stability and fate of T3.5 in the presence of NADPH and a murine hepatic S9 fraction. Hepatic S-9 fractions were incubated with 50 μM T3.5 in the presence of NADPH (1 mM) for 10, 30 and 60 min. HPLC was conducted with a Hypersil Gold column that is stable at high pH. […] The full scan mass spectrum had the isotopic ratio expected for the chlorine substituted acridone ring. […] The two unresolved peaks most likely represent de-ethylation of the tertiary amine on each side chain.
A second de-ethylation also occurred with the prolonged incubation as evidenced by the peak at 17.5 min when monitored at m/z 388.1 (loss of m/z=56). Another dealkylated metabolite was monitored at m/z 345.1 and corresponds to the loss of the triethylamine side chain (loss of m/z=99) from the acridone ring. The dealkylation could occur from either the aryl ether side chain or from the acridone ring nitrogen. The later would result in the production of the active compound T2. […] In addition to the dealkylated products, a hydroxylated metabolite was also detected by monitoring at m/z 460.2 (addition of m/z=16). The hydroxylation could occur on the acridone ring or on one of the primary carbons on the ethylamine side chains. Further MS/MS experiments will help establish the site of hydroxylation.

The subject of series [9] is P. yoelii. Description: Hemozoin in PRBCs of treated infected mice. Type of series: in vivo. On the procedure: P. falciparum Dd2 MDR parasited red cells were synchronized to the ring stage by sorbitol lysis and incubated the cells in the presence or absence of 300 nM T3.5. […] P. yoelii infected mice treated with T3.5 harbor PRBCs that lack hemozoin. Taken together these observations are consistent with the notion that T3.5 blocks hemozoin formation in infected cells.

Series [10] deals with murine splenic lymphocytes (MSLCs). In words: Cytotoxicity by Alamar Blue assay. The settings on record: for IC50: cytotoxicity. For orientation: Resazurin is reduced to fluorescent resorufin, in cell work by metabolically active cells.
The subject of series [11] is P. yoelii (K). In words: Curative efficacy vs patent infection, three once-daily doses (adapted 6-day Thompson test). Particulars: ig, three once-daily doses.

Entries after “also recorded” stand apart in the source; their conditions may differ. Read-outs that look alike come from different tables or passages of the source. Some results are limits rather than exact numbers.

As a reminder, the IC50 is the point on the concentration scale where inhibition reaches its midpoint. What is called Ki is the dissociation constant of the complex between target and ligand, obtained from inhibition or displacement.

T1 sequence (Q01959 whole entry): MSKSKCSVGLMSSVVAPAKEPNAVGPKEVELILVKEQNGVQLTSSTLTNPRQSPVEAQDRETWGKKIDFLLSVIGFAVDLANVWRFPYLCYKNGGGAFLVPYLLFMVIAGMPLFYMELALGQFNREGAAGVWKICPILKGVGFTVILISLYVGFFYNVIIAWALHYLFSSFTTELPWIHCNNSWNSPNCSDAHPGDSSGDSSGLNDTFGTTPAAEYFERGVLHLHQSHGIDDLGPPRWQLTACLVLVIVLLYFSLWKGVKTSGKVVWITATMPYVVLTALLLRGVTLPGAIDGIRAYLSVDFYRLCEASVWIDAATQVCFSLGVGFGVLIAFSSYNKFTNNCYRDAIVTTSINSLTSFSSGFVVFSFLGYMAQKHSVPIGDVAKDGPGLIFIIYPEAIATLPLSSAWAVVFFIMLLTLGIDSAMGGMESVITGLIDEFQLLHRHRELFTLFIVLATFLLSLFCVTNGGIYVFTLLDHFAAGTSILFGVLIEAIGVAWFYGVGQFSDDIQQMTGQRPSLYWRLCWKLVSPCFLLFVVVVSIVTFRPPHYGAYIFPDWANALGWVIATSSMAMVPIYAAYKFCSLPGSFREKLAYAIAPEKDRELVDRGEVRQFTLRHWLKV
T3 sequence (P23975 whole entry): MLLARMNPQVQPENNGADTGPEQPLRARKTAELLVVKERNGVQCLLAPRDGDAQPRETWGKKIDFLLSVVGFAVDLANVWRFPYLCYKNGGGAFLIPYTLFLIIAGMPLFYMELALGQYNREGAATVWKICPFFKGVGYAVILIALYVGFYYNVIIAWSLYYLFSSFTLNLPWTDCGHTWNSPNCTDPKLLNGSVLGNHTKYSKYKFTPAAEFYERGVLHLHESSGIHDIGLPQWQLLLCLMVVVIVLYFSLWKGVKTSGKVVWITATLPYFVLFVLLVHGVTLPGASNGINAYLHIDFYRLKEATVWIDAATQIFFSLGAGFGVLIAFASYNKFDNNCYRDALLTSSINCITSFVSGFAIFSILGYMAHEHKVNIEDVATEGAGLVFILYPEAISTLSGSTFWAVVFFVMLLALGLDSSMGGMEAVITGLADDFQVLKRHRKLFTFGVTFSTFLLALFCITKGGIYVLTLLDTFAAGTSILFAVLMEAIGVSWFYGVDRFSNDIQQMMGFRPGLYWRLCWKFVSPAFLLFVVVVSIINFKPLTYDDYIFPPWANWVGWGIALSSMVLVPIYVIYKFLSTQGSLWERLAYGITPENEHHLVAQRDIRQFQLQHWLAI
T2 sequence (P31645 whole entry): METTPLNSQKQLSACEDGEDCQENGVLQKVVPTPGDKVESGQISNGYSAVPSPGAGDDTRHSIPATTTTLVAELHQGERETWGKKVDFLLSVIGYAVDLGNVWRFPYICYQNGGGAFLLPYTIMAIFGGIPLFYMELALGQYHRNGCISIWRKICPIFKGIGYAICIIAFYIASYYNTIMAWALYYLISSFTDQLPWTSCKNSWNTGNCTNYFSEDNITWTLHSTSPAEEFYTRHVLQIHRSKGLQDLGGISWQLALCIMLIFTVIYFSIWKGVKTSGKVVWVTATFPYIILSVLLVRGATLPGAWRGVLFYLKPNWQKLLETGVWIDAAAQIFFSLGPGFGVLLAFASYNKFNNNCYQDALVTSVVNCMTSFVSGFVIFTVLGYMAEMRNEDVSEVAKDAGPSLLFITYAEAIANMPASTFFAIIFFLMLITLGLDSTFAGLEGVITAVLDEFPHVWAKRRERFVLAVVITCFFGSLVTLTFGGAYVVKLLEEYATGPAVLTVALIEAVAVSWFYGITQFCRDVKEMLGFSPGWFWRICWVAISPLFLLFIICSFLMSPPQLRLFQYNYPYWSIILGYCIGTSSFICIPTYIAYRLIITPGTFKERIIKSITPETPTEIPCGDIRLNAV

Consider `CCN(CC)CCOc1ccc2c(=O)c3ccc(Cl)cc3n(CCN(CC)CC)c2c1` [T3.5, 3-(2-diethylaminoethoxy)-6-chloro-10-(2-diethylaminoethyl)-9-acridone], for which the IC50 was 50 nM in [1] (Table 2, average of 4 independent experiments, read-out: IC50, D6); 44 nM in series [1] (Table 4, read-out: IC50 P. falciparum D6); greater than 25000 nM in [10] (read-out: IC50, MSLCs, Table 2); greater than 25000 nM in [10] (read-out: IC50 MSLCs, Table 4). For the same compound, in series [2], the “Heme-binding Ka” value is given as 7.1 10^4 M^−1. The “interaction with CQ” value in series [3] (isobolar analysis) was “synergistic”. The interaction with amodiaquine result in series [3] (isobolar analysis) is listed as “synergistic”. Also, the interaction with mefloquine entry in series [3] (isobolar analysis) was “not”. Also, the interaction with quinine entry is “synergism; also recorded: synergistic” in series [3] (isobolar analysis) and “synergism” in series [4]. In [3] (with 7-70 nM quinine), the “T3.5 concentration giving 90% growth inhibition in combination” value fell in the range of 20 to 200 nM. Also, the Ki in [5] is greater than 10000 nM; in series [6] it was 2290 nM; in series [7], greater than 10000 nM. In series [8], the most abundant metabolites entry was “de-ethylated products”. For the same compound, the “hemozoin in PRBCs” value in [9] is listed as “lack hemozoin”. In addition, the “cytotoxicity at the highest tested concentration” value in [10] (25 μM) is on record as “no evidence of cytotoxicity”. The IVTI in series [10] (ratio of cytotoxicity IC50 (vs. MSLCs) to antimalarial IC50 against D6) is greater than 500. For the same compound, the “ED50 and ED90, gavage (ig) dosing, in words” value in series [11] is recorded as “comparable”.

These data come from US9399625B2, “Acridone compounds” (Oregon Health & Science University, priority 2006, dated 2016).
